Test results taken from patent publication US20200017495A1, “NOVEL HETEROCYCLIC COMPOUNDS AND THEIR USE IN PREVENTING OR TREATING BACTERIAL INFECTIONS” (priority 2017, published 2020).

Experiments:
[1] = target: OXA-23 (Acinetobacter baumannii, UniProt Q9L4P2); assay: β-lactamase inhibitory activity, IC50 (nitrocefin hydrolysis); type: biochemical
Experimental: (§1) Enzymes were cloned in E. coli expression vector, expressed and purified in house using classical procedures. […] After 30 min of pre-incubation at room temperature, 15 μL of NCF (100 μM final) were finally added in each well. […] Enzyme activity was obtained by subtracting the background from the final signal, and was converted to enzyme inhibition using non inhibited wells. IC50 curves were fitted to a classical Langmuir equilibrium model with Hill slope using XLFIT (IDBS).

[2] = target: PAE ampC (Pseudomonas aeruginosa, UniProt P24735); assay: as above; type: biochemical, P. aeruginosa
Experimental: as §1

[3] = target: OXA-48 (Klebsiella pneumoniae, UniProt Q6XEC0); assay: as above; type: biochemical
Experimental: as §1

[4] = Rat intraduodenal bioavailability determination; type: in vivo, Male Sprague-Dawley (SD) rats; conditions: 10 mg/kg, AF2 titrated in plasma
Experimental: Method 3: Rat Intraduodenal Bioavailability Determination (Table 7) Intravenous (jugular) or intraduodenal catheterized Male Sprague-Dawley (SD) rats (250-270 g) were obtained from Janvier Labs (Le Genest-Saint-Isle, France). All rats were housed in a −temperature (20±2° C.) and −humidity (55%±10%) controlled room with 12h light/dark cycle, and were acclimatized for at least 4 days before experimentation. Water and food were available ad libitum throughout the study. All rats were handled in accordance with the institutional and national guidelines for the care and use of laboratory animals. Rats were allocated to two groups based on the administration route: intravenous or intraduodenal administration (n=3/group). In the intravenous administration study, drugs (10 mg/kg in phosphate buffer 10 mM, pH7.4) were administered under isoflurane anesthesia via the catheter placed in the jugular vein. […] The pharmacokinetic parameters were calculated using XLfit (IDBS) and Excel (Microsoft) software, using standard non-compartmental methods. The intraduodenal bioavailability was calculated by dividing the AUC obtained from the intraduodenal administration by the AUC obtained from the intravenous administration.

[5] = target: TEM-1 (Escherichia coli, UniProt P62593); assay: β-lactamase inhibitory activity, IC50 (nitrocefin hydrolysis); type: biochemical
Chain of TEM-1 (P62593 24-286 limits assumed): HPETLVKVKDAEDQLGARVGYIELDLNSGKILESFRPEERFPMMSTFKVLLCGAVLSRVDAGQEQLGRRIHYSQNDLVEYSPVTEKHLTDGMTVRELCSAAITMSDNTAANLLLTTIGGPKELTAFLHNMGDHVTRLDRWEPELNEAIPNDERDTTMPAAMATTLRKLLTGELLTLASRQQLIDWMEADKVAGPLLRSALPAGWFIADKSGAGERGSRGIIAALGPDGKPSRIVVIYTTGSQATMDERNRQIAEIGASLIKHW
Experimental: as §1

Chain of OXA-48 (Q6XEC0 23-265 limits assumed): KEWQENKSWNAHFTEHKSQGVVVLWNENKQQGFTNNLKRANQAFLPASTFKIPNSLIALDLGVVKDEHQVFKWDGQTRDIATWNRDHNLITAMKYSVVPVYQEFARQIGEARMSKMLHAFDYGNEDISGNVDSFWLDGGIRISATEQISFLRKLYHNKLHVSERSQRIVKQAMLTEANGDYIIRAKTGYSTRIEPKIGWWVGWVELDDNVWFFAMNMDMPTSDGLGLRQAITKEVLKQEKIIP
Chain of OXA-23 (Q9L4P2 18-273): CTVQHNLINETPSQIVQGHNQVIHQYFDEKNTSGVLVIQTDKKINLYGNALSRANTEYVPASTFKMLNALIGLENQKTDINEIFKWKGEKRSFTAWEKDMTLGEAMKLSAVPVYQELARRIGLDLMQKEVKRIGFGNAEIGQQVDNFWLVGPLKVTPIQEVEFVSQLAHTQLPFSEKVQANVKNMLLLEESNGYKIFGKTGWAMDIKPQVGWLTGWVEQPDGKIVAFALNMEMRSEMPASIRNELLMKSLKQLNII
Chain of PAE ampC (P24735 27-397): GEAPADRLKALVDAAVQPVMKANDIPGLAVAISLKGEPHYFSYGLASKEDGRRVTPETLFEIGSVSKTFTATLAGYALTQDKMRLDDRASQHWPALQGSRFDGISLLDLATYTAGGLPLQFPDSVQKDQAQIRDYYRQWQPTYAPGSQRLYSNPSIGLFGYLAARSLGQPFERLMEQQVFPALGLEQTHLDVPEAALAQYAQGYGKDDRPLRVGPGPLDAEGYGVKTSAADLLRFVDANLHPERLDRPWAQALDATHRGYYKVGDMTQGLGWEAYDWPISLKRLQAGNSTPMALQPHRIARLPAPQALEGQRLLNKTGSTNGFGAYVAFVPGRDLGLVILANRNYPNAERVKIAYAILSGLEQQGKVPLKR

SMILES | IC50 [1] | IC50 [2] | IC50 [3] | AUC 0-∞ ([4]; intravenous) | AUC(0-inf) ([4]; male, Sprague-Dawley, plasma, iv) | IC50 [5]
O=C1N2CC(c3ncco3)=CC(C2)N1OC(F)(F)C(=O)[O-].[Li+] (stereo not shown) [AF2] | 7400 nM | 280 nM | 2.4 nM | 10789 ng·h/mL | 11000 ng·h/mL | 2.6 nM
O=C1N2CC(n3cccn3)=CC(C2)N1OC(F)(F)C(=O)[O-].[Li+] (stereo not shown) [AF3] | 9600 nM | 98 nM | 5.1 nM | – | – | 0.81 nM
